Test results taken from US9499509B2, “Dihydrochalcone derivatives and their use as antibiotic agents” (UNIVERSITÉ DU QUÉBEC À CHICOUTIMI, priority 2012, dated 2016).
Where a name gives a salt, the structure may show the parent alone. Read-outs that look alike come from different tables or passages of the source.

Key:
[1] = test system: methicillin-resistant Staphylococcus aureus (MRSA) strains; experiment: Antibiotic assay (resazurin, Example 1), MRSA strains; assay type: cell-based; conditions: Staphylococcus aureus, MRSA
Source text: (§1) Bacteria Strain. […] The MRSA were obtained as further described below.
(§2) Antibiotic agents. Cyprofloxacin and erythromycin were provided by Sigma-Aldrich. Gentamicin sulfate and vancomycin hydrochloride were provided by Calbiochem.
Isolation and identification of methicillin-resistant Staphylococcus aureus (MRSA) strains. From March 2007 to March 2008, 35 screening swabs from nares (n=31), throat (n=3), Groin pus (n=1) were obtained from patients hospitalized at Chicoutimi hospital. Identification of S. aureus was performed using the Slidex Staph-Kit (bioMerieux Vitek, Inc., Hazelwood, Mo.) according to the manufacturer's instructions. Quality control was performed with MRSA strain ATCC 43300 and S. aureus strain ATCC 25923. In addition, S. aureus profile was determined with API Staph test strip with bacterial suspension of saline McFarland of 0.5 (bioMerieux, Durham, N.C.) according to the manufacturer's protocol. API Staph strips were held for 24 h before the results were read. A latex agglutination (SLIDEX) test detecting methicilin resistance in Staphylococci based on the production of low-affinity PBP2a, which is encoded by the mecA gene was performed on all strains. An antibiogram was also performed to confirm the identification of MRSA strains using disk diffusion test.
Antibiotic susceptibility testing using disk diffusion method. The antimicrobial activity of different classes of antibiotics of the potential MRSA was determined by diffusion method (Kirby-Bauer) as described by NCCLS. The antibiotics tested included: penicillin (10 units), amoxicillin/clavulanic acid (20/10 μg), ciprofloxacin (5 μg), moxifloxacin (5 μg), levofloxacin (5 μg), clindamycin (15 μg), erythromycin (15 μg), cefoxitin (30 μg), linezolid (30 μg), trimethoprim/sulfomethoxazole (1.25/23.75 μg), rifampicin (5 μg), gentamicin (10 μg) and vancomycin (30 μg). The agar medium had pH 7.2 to 7.4 before inoculing potentiel MRSA. The antibiotics were maintained at 8° C. or lower −14° C. according to manufacturer's recommendations. The pure culture was inoculated on a non-selective plate for 18-24 h. Each colony was collected with a wire loop and transfered the growth to a tube containing 4 to 5 mL of a tryptic-soy broth. The inoculum density was standarized with BaSO4 using 0.5 McFarland standard. All strains were incubated at 37° C. until it achieves or exceeds the turbidity of 0.5 McFarland standard. Inoculation of the dried surface (Muller-Hinton agar plate) by streaking the swab over the entire sterile agar surface. This procedure was repeated two more times. After 15 min, the appropriate disk were applied on the surface with a sterile forceps. The inverted plates was placed in a incubator at 37° C./air/16 to 18 h or 24 h for vancomycin. The inhibition zones were measured with a millimetric ruler. Interpretation of zone sizes by references of the manufacturer. Quality control organisms used were ATCC strains number 25923.
MRSA. Ten (10) strains of MRSA obtained as described above were tested along with an S. aureus wild type (WT) strain (ATCC25923).

S. aureus = experiment: Antibiotic assay (resazurin, Example 1), S. aureus strains of Table 3; assay type: cell-based, Staphylococcus aureus; conditions: Staphylococcus aureus
Source text: as §1, §2

Streptococcus pneumoniae = experiment: Antibiotic assay (resazurin, Example 1), Streptococcus pneumoniae; assay type: cell-based; conditions: for IC50 / MIC: Streptococcus pneumoniae
Method: as §1, §2
(§3) Five additional strains were tested: Streptococcus pneumoniae, Streptococcus agalactiae, Streptococcus pyogenes, Enterococcus faecalis and Corynebacterium jeikeium.

Enterococcus faecalis = experiment: Antibiotic assay (resazurin, Example 1), Enterococcus faecalis; assay type: cell-based; conditions: Enterococcus faecalis
Method: as §1, §2, §3

Corynebacterium jeikeium = experiment: Antibiotic assay (resazurin, Example 1), Corynebacterium jeikeium; assay type: cell-based; conditions: Corynebacterium jeikeium
Method: as §1, §2, §3

Streptococcus pyogenes = experiment: Antibiotic assay (resazurin, Example 1), Streptococcus pyogenes; assay type: cell-based; conditions: Streptococcus pyogenes
Method: as §1, §2, §3

Streptococcus agalactiae = experiment: Antibiotic assay (resazurin, Example 1), Streptococcus agalactiae; assay type: cell-based; conditions: Streptococcus agalactiae
Method: as §1, §2, §3

S. epidermidis = experiment: Antibiotic assay (resazurin, Example 1), S. epidermidis strains; conditions: Staphylococcus epidermidis
Method: The antibiotic assays were performed in 96-well plates (BD Falcon). The bacteria strains were inoculated in Nutrient Broth (BD) for the gram negative bacteria and Tryptic soy broth (BD) with 10% of defibrinated sheep blood (PML microbiological) for gram positive strain. All bacteria strains were dosed by spectrophotometry at 660 nm where 1 D.O=2×10^8 bacteria/mL. All bacteria were plated in their respective broth at a concentration of 450 000 bacteria/mL.
Compounds I, II and III were diluted in methanol and the above-noted antibiotic agents were diluted in water. The solvent concentration was 0.25%, which was not toxic for the bacteria. Compounds I, II and III and the above-noted antibiotic agents were tested at 8 different concentrations.
Each well contained: 100 μL of bacteria, 50 μL of the compounds tested (compound I, II, III or the above-noted antibiotic agent) and 50 μL of a 4% resazurin (Sigma) solution. The plates were incubated at 37° C. for 5 h. The fluorescence was read using a Fluoroskan Ascent™ FL (thermo) using an excitation wavelength of 530 nm and an emission wavelength of 590 nm.
Two different strains of Staphylococcus were tested, namely the S. epidermidis and the S. aureus strains.

Compound: CN[C@H](CC(C)C)C(=O)N[C@H]1C(=O)N[C@@H](CC(N)=O)C(=O)N[C@H]2C(=O)N[C@H]3C(=O)N[C@H](C(=O)N[C@H](C(=O)O)c4cc(O)cc(O)c4-c4cc3ccc4O)[C@H](O)c3ccc(c(Cl)c3)Oc3cc2cc(c3O[C@@H]2O[C@H](CO)[C@@H](O)[C@H](O)[C@H]2O[C@H]2C[C@](C)(N)[C@H](O)[C@H](C)O2)Oc2ccc(cc2Cl)[C@H]1O [Vancomycin, vancomycin hydrochloride, reference compound]
- IC50 ([1]; MRSA1): 0.08 ± 0.01 µM
- IC50 ([1]; MRSA2): 0.08 ± 0.01 µM
- IC50 ([1]; MRSA3): 0.064 ± 0.007 µM
- IC50 ([1]; MRSA4): 0.069 ± 0.009 µM
- IC50 ([1]; MRSA5): 0.062 ± 0.006 µM
- IC50 ([1]; MRSA6): 0.08 ± 0.01 µM
- IC50 ([1]; MRSA7): 0.08 ± 0.01 µM
- IC50 ([1]; MRSA8): 0.08 ± 0.01 µM
- IC50 ([1]; MRSA9): 0.08 ± 0.01 µM
- IC50 ([1]; MRSA10): 0.059 ± 0.006 µM
- MIC ([1]; read-out: Minimum Inhibitory Concentration (MIC), MRSA1): 0.12 µM
- MIC ([1]; read-out: Minimum Inhibitory Concentration (MIC), MRSA2): 0.13 µM
- MIC ([1]; read-out: Minimum Inhibitory Concentration (MIC), MRSA3): 0.1 µM
- MIC ([1]; read-out: Minimum Inhibitory Concentration (MIC), MRSA4): 0.1 µM
- MIC ([1]; read-out: Minimum Inhibitory Concentration (MIC), MRSA5): 0.09 µM
- MIC ([1]; read-out: Minimum Inhibitory Concentration (MIC), MRSA6): 0.2 µM
- MIC ([1]; read-out: Minimum Inhibitory Concentration (MIC), MRSA7): 0.11 µM
- MIC ([1]; read-out: Minimum Inhibitory Concentration (MIC), MRSA8): 0.11 µM
- MIC ([1]; read-out: Minimum Inhibitory Concentration (MIC), MRSA9): 0.11 µM
- MIC ([1]; read-out: Minimum Inhibitory Concentration (MIC), MRSA10): 0.09 µM
- IC50 (S. aureus; S. aureus 14094): 0.28 ± 0.04 µM
- IC50 (S. aureus; S. aureus 14108): 0.27 ± 0.04 µM
- IC50 (S. aureus; S. aureus 14118): 0.24 ± 0.03 µM
- IC50 (S. aureus; S. aureus 14154): 0.28 ± 0.05 µM
- MIC (S. aureus; read-out: Minimum Inhibitory Concentration (MIC), S. aureus 14094): 0.41 µM
- MIC (S. aureus; read-out: Minimum Inhibitory Concentration (MIC), S. aureus 14108): 0.44 µM
- MIC (S. aureus; read-out: Minimum Inhibitory Concentration (MIC), S. aureus 14118): 0.38 µM
- MIC (S. aureus; read-out: Minimum Inhibitory Concentration (MIC), S. aureus 14154): 0.45 µM
- IC50 (Streptococcus pneumoniae; Strep. pneumoniae 14070): 0.09 ± 0.04 µM
- IC50 (Streptococcus pneumoniae; Strep. pneumoniae 14112): 0.094 ± 0.008 µM
- IC50 (Streptococcus pneumoniae; Strep. pneumoniae 14138): 0.13 ± 0.08 µM
- IC50 (Streptococcus pneumoniae; Strep. pneumoniae 14144): > 10 µM
- IC50 (Streptococcus pneumoniae; Strep. pneumoniae 14148): 0.084 ± 0.006 µM
- MIC (Streptococcus pneumoniae; read-out: Minimum Inhibitory Concentration (MIC), Strep. pneumoniae 14070): 8.37 µM
- MIC (Streptococcus pneumoniae; read-out: Minimum Inhibitory Concentration (MIC), Strep. pneumoniae 14112): 0.16 µM
- MIC (Streptococcus pneumoniae; read-out: Minimum Inhibitory Concentration (MIC), Strep. pneumoniae 14138): > 10 µM
- MIC (Streptococcus pneumoniae; read-out: Minimum Inhibitory Concentration (MIC), Strep. pneumoniae 14144): > 10 µM
- MIC (Streptococcus pneumoniae; read-out: Minimum Inhibitory Concentration (MIC), Strep. pneumoniae 14148): 0.2 µM
- activity against Streptococcus pneumoniae strain 14138 (Streptococcus pneumoniae; in words): had an activity
- IC50 (Enterococcus faecalis; Ent. Faecalis 14078): 0.7 ± 0.1 µM
- IC50 (Enterococcus faecalis; Ent. Faecalis 14115): > 10 µM
- MIC (Enterococcus faecalis; read-out: Minimum Inhibitory Concentration (MIC), Ent. Faecalis 14078): 5.59 µM
- MIC (Enterococcus faecalis; read-out: Minimum Inhibitory Concentration (MIC), Ent. Faecalis 14115): > 10 µM
- IC50 (Corynebacterium jeikeium): 0.22 ± 0.03 µM
- MIC (Corynebacterium jeikeium; read-out: Minimum Inhibitory Concentration (MIC)): 0.35 µM
- IC50 (Streptococcus pyogenes; Strep. pyogenes 14149): 0.117 ± 0.009 µM
- IC50 (Streptococcus pyogenes; Strep. pyogenes 14152): 0.08 ± 0.02 µM
- MIC (Streptococcus pyogenes; read-out: Minimum Inhibitory Concentration (MIC), Strep. pyogenes 14149): 0.17 µM
- MIC (Streptococcus pyogenes; read-out: Minimum Inhibitory Concentration (MIC), Strep. pyogenes 14152): 3.25 µM
- IC50 (Streptococcus agalactiae; Strep. agalactiae 14150): 0.25 ± 0.06 µM
- IC50 (Streptococcus agalactiae; Strep. agalactiae 14151): 0.33 ± 0.06 µM
- IC50 (Streptococcus agalactiae; Strep. agalactiae 14153): 0.24 ± 0.04 µM
- MIC (Streptococcus agalactiae; read-out: Minimum Inhibitory Concentration (MIC), Strep. agalactiae 14150): 0.35 µM
- MIC (Streptococcus agalactiae; read-out: Minimum Inhibitory Concentration (MIC), Strep. agalactiae 14151): 4.03 µM
- MIC (Streptococcus agalactiae; read-out: Minimum Inhibitory Concentration (MIC), Strep. agalactiae 14153): 0.36 µM
- IC50 (S. epidermidis; S. epidermidis 14069): 0.8 ± 0.1 µM
- IC50 (S. epidermidis; S. epidermidis 14085): 0.8 ± 0.1 µM
- IC50 (S. epidermidis; S. epidermidis 14093): 1.3 ± 0.2 µM
- IC50 (S. epidermidis; S. epidermidis 14134): 1.7 ± 0.2 µM
- IC50 (S. epidermidis; S. epidermidis 14143): 2.7 ± 0.1 µM
- MIC (S. epidermidis; read-out: Minimum Inhibitory Concentration (MIC), S. epidermidis 14069): 6.58 µM
- MIC (S. epidermidis; read-out: Minimum Inhibitory Concentration (MIC), S. epidermidis 14085): 4 µM
- MIC (S. epidermidis; read-out: Minimum Inhibitory Concentration (MIC), S. epidermidis 14093): 8.38 µM
- MIC (S. epidermidis; read-out: Minimum Inhibitory Concentration (MIC), S. epidermidis 14134): 11.4 µM
- MIC (S. epidermidis; read-out: Minimum Inhibitory Concentration (MIC), S. epidermidis 14143): > 12.5 µM
